In brackets after ≈: the same amount, converted by molar mass.
What was measured:
[1] = tested on: Colon 26; assay: Antiproliferative Activity against colon 26 cancer cells; format: functional, cell-based; conditions: Mus musculus
[2] = tested on: A 172; assay: Growth inhibition time for A172 Human Glioma cell growth at concentration 5 uM; format: functional

Row | SMILES | IC50 [1] [µg/mL] | Inhibition period [2] [h]
1 | CCCCC[C@H](O)/C=C/[C@H]1C=CC(=O)/C1=C/CCCCCC(=O)O | 0.57 (≈ 1.7 µM) | 
2 | CCCCC[C@H](O)/C=C/[C@@H]1C=CC(=O)/C1=C/CCCCCC(=O)OC |  | >72
3 | CCCCC[C@@H](O)/C=C/[C@@H]1C=CC(=O)/C1=C/CCCCCC(=O)OC |  | >72
4 | CCCCC[C@H](O)/C=C/[C@@H]1C=CC(=O)/C1=C/CCCCCC(=O)O | 0.35 (≈ 1.05 µM) | 
5 | CCCCCC/C=C/[C@@H]1C=CC(=O)/C1=C/CCCCCC(=O)O | 0.23 (≈ 0.722 µM) | 
6 | CCCCC[C@@H](O)/C=C/[C@@H]1C=CC(=O)/C1=C/CCCCCC(=O)O | 0.5 (≈ 1.49 µM) | 
7 | CCCCC[C@H](O)/C=C/[C@H]1C=CC(=O)/C1=C/CCCCCC(=O)OC |  | <48

Reference: ChEMBL document CHEMBL1131056, “Rational design of antitumor prostaglandins with high biological stability” (J Med Chem, 1998)
